Experimental data from US10576147B2, “Muramyl peptide derivative compound, synthesis and uses thereof” (BHARAT BIOTECH INTERNATIONAL LIMITED, priority 2015, dated 2020).

Assays:
[1] = tested on: BALB/c mice; assay: TH1:TH2 index from HBsAg specific IgG isotypes; type: in vivo
Source text: It is known that, IgG subclasses produced after the immunization against given antigen, primarily determines the function of the antibody or indirectly measures the relative contribution of TH1 versus TH2 type cytokine induction. More specifically, production of IgG1 antibodies induces TH2 type cytokines, whereas, production of IgG2a & IgG3 antibodies induces TH1 type cytokines. […] In this context, in the present invention, we determined the levels of IgG isotypes (IgG1, IgG2a & IgG3), raised against HBsAg in the presence or absence of MDP-MN (at 10 & 50 μg/mouse) and calculated TH1: TH2 index then calculated as ([IgG2a+IgG3]/2)/(IgG1). Details of assay protocol as described below as in example 3.1.3. According to such calculation, an index value <1 stands for a TH2 polarization; an index value >1 stands for a TH1 polarization.
Analysis of antigen specific IgG antibody subclasses (isotypes namely IgG1 or IgG2a or IgG3) was performed as mentioned in example 3.1.2, except at one step, where goat anti-mouse IgG1 or IgG2a or IgG3 HRP was used at a dilution of 1:5000 (in place of goat anti-mouse IgG) TH1:TH2 index obtained at 10 & 50 μg/mouse of MDP-MN is as shown in FIG. 5c.

[2] = tested on: splenocytes; assay: Splenocyte proliferation (MTT); type: cell-based, mice; details: mouse splenocytes, LPS and Con-A, 48 h
Description: Spleens were isolated from mice and were processed to single cell suspension. 96 well flat bottom Micro titer plates were seeded with 1×10^5 cells/well with RPMI1640 media. Cells were treated with compounds, OVA, Con A (2 μg/mL) and LPS (10 μg/mL) or medium giving a final volume of […]. Plates were incubated at 37° C. with 5% CO2 in an incubator. After 48 h of incubation […] of Triazolyl blue Tetrazolium Bromide (MTT) solution was added to each well, incubated for next 4 h. Untransformed MTT was removed from each well by aspirating the supernatant ([…]) and replaced with DMSO. The absorbance was read at 570 nm after 15 min.
Immunostimulating substances act through specific (antigen-dependent) T lymphocytes, B lymphocytes, and dendritic cells and also through non-specific mechanisms of action (antigen-independent) that involves granulocytes, macrophages, and NK cells. Being a secondary lymphoid organ, spleen contains a heterogeneous population of lymphocytes to examine the immunostimulant activity. However, proliferations of immune cells like T and B cells are the benchmark for immune potentiation. Cells were treated with or without OVA or in combination with MDP and MDP-MN. Type of immune response in all treated groups was measured with LPS and Con-A splenocyte proliferation assays depicted in FIG. 3. […] This is essential for B cell expansion.

[3] = tested on: Peripheral blood mononuclear cells (PBMCs); assay: In-vitro pyrogen test (IL-1β, IL-6, TNF-α by ELISA); type: cell-based
Description: Generally, pyrogenicity of any molecule can be measured by the over production of pro-inflammatory cytokines IL-1β, IL-6, and TNFα, following an activation of monocytes in-vitro, which inturn, could be an indicative of increased reactogenicity in-vivo.
Frozen Peripheral blood mononuclear cells (PBMCs) were revived and plated (0.5×10^6 cells/ml, 100 μl) in 96 well round bottom cell culture plate. Cells were supplemented with RPMI 1640 medium (Gibco Laboratories, Grand Island, N.Y.) containing fetal bovine serum (10%), glutamine (2 mM), and pencillin-streptomycin. Cells further stimulated with LPS (10 ng/ml) or endotoxin (1 EU/ml, 0.5 EU/ml, 0.25 EU/ml, 0.125 EU/ml) or MDP-MN (10 or 100 μg/ml). Cells stimulated with LPS or endotoxin was incubated for 4 hrs where as cells stimulated with MDP derivatives of the present invention kept for incubation in humidified CO2 chamber at 37° C. for 24 hrs. After stimulation, cell culture supernatant was collected and cytokines (such as IL-1β, IL-6 or TNF-α) were measured by ELISA. Concentrations each cytokine produced by PBMCs in the presence of reference standard endotoxin at 0.5 EU/ml was measured in triplicates. Threshold levels were calculated for each cytokine, using the cytokine levels produced by the reference standard endotoxin at 0.5 EU/ml (Marina et al., Vaccine 30 (2012) 4859-4865).
To determine Interleukin 1β, Enzyme Linked Immunosorbent Assay (ELISA) was performed according to the instruction manual (ebioscience, cat#88-7010). Briefly, capture antibody (cat#14-7018-67, eBioscience) was first diluted 1:250 using coating buffer and added 100 μL to each well in 96-well microplate. Plates were incubated overnight at 2-8° C. Coated plates were then washed with wash buffer (PBST). After washing, these plates were blocked using 1× assay diluent for 1 hr at room temperature followed by washing with PBST. A series of 2 fold dilutions were made from top standard ranging from 4 to 500 pg/mL, to make the standard curve. Similarly, 4 fold dilutions (1:4, 1:16 & 1:64) of cell supernatant obtained from PBMCs stimulation with MDP-MN were prepared. Aliquot (100 μL) of diluted standards or cell supernatants were added to well in duplicates and the plate was incubated at room temperature for 2 hrs. After washing the plate, 100 μL/well of detection antibody (cat#33-7016-67) diluted in 1× Assay diluent was added and incubated at room temperature for 1 hr. Later, 100 μL/well of Avidin-HRP* diluted in 1× Assay diluent was added and incubated at room temperature for 30 minutes. Finally, after washes, 100 μL of substrate solution was added to each well and incubated at RT for 15 minutes. Reaction was stopped by the addition of 50 μL of 2N H2SO4 to each well and the plate was read at 450 nm. […]

SMILES: C[C@H](NC(=O)[C@@H](C)O[C@H]1[C@H](O)[C@@H](CO)OC(O)[C@@H]1NC(=O)[C@H](O)CO)C(=O)N[C@H](CCC(=O)O)C(N)=O (stereo partly drawn) [MDP-MN, (4R)-5-amino-4-((2S)-2-((2R)-2-(((3R,4R,5S,6R)-3-((2,3-dihydroxypropanamido))-2,5-dihydroxy-6-(hydroxymethyl)tetrahydro-2H-pyran-4-yl)oxy)propanamido)propanamido)-5-oxopentanoic acid]
- TH1:TH2 index ([IgG2a+IgG3]/2)/(IgG1) ([1]; HBsAg in the presence of MDP-MN (10 & 50 μg/mouse)): 2.5
- TH1 type cytokines induction ([1]; mice vaccinated with Hepatitis B surface antigen in presence of MDP-MN): induced TH1 type cytokines
- splenocyte proliferation [2]: inducing the LPS mediated splenocyte proliferation
- IL-1β level vs threshold ([3]; MDP-MN at both 10 & 100 μg/ml, 24 hrs, (endotoxin 0.5 EU/ml)): within the threshold value
- TNF-α level vs threshold ([3]; MDP-MN at both 10 & 100 μg/ml, 24 hrs, threshold 753 μg/ml): within the threshold value
- IL-6 level vs threshold ([3]; MDP-MN at both 10 & 100 μg/ml, 24 hrs, threshold 3110 μg/ml): within the threshold value
- pyrogenicity ([3]; in-vitro pyrogen test): doesn't cause any pyrogenicity
